Source: patent US9326503B2, “Biocide compositions comprising branched alkyl polyglycosides” (Cognis IP Management GmbH, priority 2009, dated 2016)

Key:
Asian Soybean Rust = test: Field trial in Brazil: soybean crop yield under Asian Soybean Rust, fungicide with or without adjuvant; type: in vivo; conditions: where added, 150 ml/ha
Procedure: Field trials were conducted in Brazil. Two standard biocide compositions from the market were applied to soybean crops: OPERA® (BASF) contains 5% w/w epoxiconazole and 13.3% w/w pyraclostrobin, the former is a preventive and curative fungicide, the latter a protectant, curative, and translaminar fungicide. FOLICUR® (Bayer CropScience) contains tebuconazole, a fungicide with protective, curative, and eradicant properties. The two compositions were applied at full recommended rate and at a 50% level. These experiments are compared to similar treatment of the plants adding in both cases adjuvant mixtures at a concentration of 150 ml/ha.

[1] = system: barnyard grass and green foxtail; test: Uptake of radio-labelled nicosulfuron with adjuvant, compared with crop oil concentrate; type: in vivo; conditions: adjuvant rate giving the same nicosulfuron uptake as COC (uptake with COC set to 100%); nicosulfuron (ACCENT WDG 75) 0.031% w/v
Procedure: A separate study was undertaken to compare the performance of the invented composition compared with an industry standard, more particularly a crop oil concentrate (COC), on the uptake of nicosulfuron on barnyard grass and green foxtail. Nicosulfuron as ACCENT® WDG 75 was used at 0.031% w/v (46.7 g active ingredient/150 l/ha). Radio-labelled nicosulfuron (50 mCi/mmol) was added to freshly prepared treatment solution 0.5 h prior to use. The ^14C nicosulfuron comprised 7% by mass. Spray solutions with nicosulfuron alone i.e. without adjuvant, were formulated in 50% acetone. All additives were used at the same concentration. The uptake using COC (Example C3) was set to 100%, therefore the data in Table 2, below, reflects the reduction in concentration of the other adjuvants in order to achieve the same level of uptake for COC. In other words, one can reduce the amount of adjuvant by 75-80% in order to achieve the same effects compared to the use of COC.

[2] = FOLICUR (tebuconazole) at full recommended rate
[3] = FOLICUR at 50% of the full recommended rate
[4] = OPERA (5% epoxiconazole, 13.3% pyraclostrobin) at full recommended rate
[5] = OPERA at 50% of the full recommended rate

Substance | Soybean Crop Yield influenced by Asian Soybean Rust - relative to control (=100), FOLICUR (Asian Soybean Rust; [2]) | Soybean Crop Yield influenced by Asian Soybean Rust - relative to control (=100), FOLICUR (Asian Soybean Rust; [3]) | Soybean Crop Yield influenced by Asian Soybean Rust - relative to control (=100), OPERA (Asian Soybean Rust; [4]) | Soybean Crop Yield influenced by Asian Soybean Rust - relative to control (=100), OPERA (Asian Soybean Rust; [5]) | Adjuvant rate [1] [% v/v]
2-Octyldodecyl polyglucoside (DP 1.7) [Example 1] | 141 | 161 | 161 | 137 | 0.24
Cetearyl polyglucoside (DP 1.5) [C1, reference compound] | 127 | 149 | 150 | 129 | 0.19
Isostearyl polyglucoside (DP 1.5) [Example 2] | 135 | 156 | 153 | 137 | 0.22
